Reference: article PMC7915026, “Sulfaguanidine Hybrid with Some New Pyridine-2-One Derivatives: Design, Synthesis, and Antimicrobial Activity against Multidrug-Resistant Bacteria as Dual DNA Gyrase and DHFR Inhibitors” (Antibiotics, 2021)
≈ marks a conversion by molar mass, not a printed value. Read-outs that look alike come from different tables or passages of the source.

How the values were obtained:
C. albicans (ATCC 10231) [1] = experiment: MIC and MFC determination; assay type: cell-based
[2] = tested on: F. oxysporum (RCMB 008002); experiment: Inhibition zone, paper disk/agar diffusion; assay type: cell-based; conditions: Na = no activity
Source text: (§1) The antimicrobial activity performed at the bacteriology laboratory, Botany and Microbiology Department, Faculty of Science, Al-Azhar University, Cairo, Egypt. The inhibition zone (IZ) of the tested derivatives expressed as the diameter (mm) according to the agar plate diffusion method.

C. albicans (ATCC 10231) [3] = experiment: Inhibition zone, paper disk/agar diffusion; assay type: cell-based; conditions: Na = no activity
Source text: as §1

[4] = tested on: F. oxysporum (RCMB 008002); experiment: MIC and MFC determination; assay type: cell-based
E. faecalis ATCC 29212 = experiment: Inhibition zone, paper disk/agar diffusion; assay type: cell-based; conditions: E. faecalis; Na = no activity
Source text: as §1

S. aureus ATCC 29213 = experiment: Inhibition zone, paper disk/agar diffusion; assay type: cell-based; conditions: S. aureus; Na = no activity
Source text: as §1

P. aeruginosa ATCC 27853 = experiment: Inhibition zone, paper disk/agar diffusion; assay type: cell-based; conditions: P. aeruginosa; Na = no activity
Source text: as §1

B. subtilis ATCC 6633 = experiment: Inhibition zone, paper disk/agar diffusion; assay type: cell-based; conditions: B. subtilis; Na = no activity
Source text: as §1

S. typhi ATCC 6539 = experiment: Inhibition zone, paper disk/agar diffusion; assay type: cell-based; conditions: S. typhi; Na = no activity
Source text: as §1

E. coli ATCC 25922 = experiment: Inhibition zone, paper disk/agar diffusion; assay type: cell-based; conditions: E. coli; Na = no activity
Source text: as §1

Row | SMILES | MFC (C. albicans (ATCC 10231) [1]; Candida albicans, ATCC10231, read-out: MFC) | MIC (C. albicans (ATCC 10231) [1]; Candida albicans, ATCC10231, read-out: MIC) | MFC (C. albicans (ATCC 10231) [1]; listed as Amp. B) | MIC (C. albicans (ATCC 10231) [1]; listed as Amp. B) | Mean Diameter of the Inhibition Zone [2] | Mean Diameter of the Inhibition Zone (C. albicans (ATCC 10231) [3]) | Mean Diameter of the Inhibition Zone (C. albicans (ATCC 10231) [3]; listed as S2) | MFC ([4]; Fusarium oxysporum, RCMB008002, read-out: MFC) | MIC ([4]; Fusarium oxysporum, RCMB008002, read-out: MIC) | MFC ([4]; listed as Amp. B) | MIC ([4]; listed as Amp. B) | Mean Diameter of the Inhibition Zone (E. faecalis ATCC 29212) | Mean Diameter of the Inhibition Zone (S. aureus ATCC 29213) | Mean Diameter of the Inhibition Zone (P. aeruginosa ATCC 27853) | Mean Diameter of the Inhibition Zone (B. subtilis ATCC 6633) | Mean Diameter of the Inhibition Zone (S. typhi ATCC 6539) | Mean Diameter of the Inhibition Zone (E. coli ATCC 25922) | melting point
1 | C[C@@H]1[C@H](O)[C@@H](C)/C=C/C=C/C=C/C=C/C=C/C=C/C=C/[C@H](O[C@@H]2O[C@H](C)[C@@H](O)[C@H](N)[C@@H]2O)C[C@@H]2O[C@](O)(C[C@@H](O)C[C@@H](O)[C@H](O)CC[C@@H](O)C[C@@H](O)CC(=O)O[C@H]1C)C[C@H](O)[C@H]2C(=O)O [Amphotericin B, amphotericin B, reference compound] | 37.3 µM (≈ 34.4 µg/mL) | 16.8 µM (≈ 15.5 µg/mL) | 37.26 ± 0.65 µM (≈ 34.4 µg/mL) | 16.81 ± 0.29 µM (≈ 15.5 µg/mL) | 18 ± 0.32 mm | 22 ± 0.2 mm | 22 ± 0.20 mm | 70.6 µM (≈ 65.3 µg/mL) | 33.6 µM (≈ 31.1 µg/mL) | 70.62 ± 0.76 µM (≈ 65.3 µg/mL) | 33.63 ± 0.98 µM (≈ 31.1 µg/mL) | – | – | – | – | – | – | –
2 | Cc1cc2csc(N)c2c(=O)n1-c1ccc(S(=O)(=O)NC(=N)N)cc1 [Compound 10, 4-(3-Amino-6-methyl-4-oxothieno[3,4-c]pyridin-5(4H)-yl)-N-carbamimidoylbenzenesulfon-amide] | – | – | – | – | 16 ± 0.86 mm | 14 ± 0.45 mm | – | – | – | – | – | 19 ± 0.63 mm | 17 ± 0.48 mm | 21 ± 0.54 mm | 14 ± 0.56 mm | 12 ± 0.35 mm | 20 ± 0.43 mm | –
3 | COc1ccc(-c2c(C(=O)Nc3ccc(S(=O)(=O)NC(=N)N)cc3)c(N)[nH]c(=O)c2C#N)cc1 [Compound 6, 2-Amino-N-(4-(carbamimidoylsulfamoyl)phenyl)-5-cyano-4-(4-methoxyphenyl)-6-oxo-1,6-dihydropyridine-3-carboxamide] | – | – | – | – | 14 ± 0.38 mm | 18 ± 0.20 mm | – | – | – | – | – | – | 16 ± 0.54 mm | – | 18 ± 0.12 mm | 12 ± 0.61 mm | – | 265 to 268 °C
4 | Cc1cc(C=Cc2ccc(Cl)cc2)c(C#N)c(=O)n1-c1ccc(S(=O)(=O)NC(=N)N)cc1 [Compound 9a, N-Carbamimidoyl-4-(4-(4-chlorostyryl)-3-cyano-6-methyl-2-oxopyridin-1(2H)-yl) benzene-sulfonamide] | – | – | – | – | no activity | 19 ± 0.65 mm | – | – | – | – | – | 25 ± 0.11 mm | 17 ± 0.78 mm | – | 22 ± 0.41 mm | 14 ± 0.52 mm | 18 ± 0.30 mm | –
5 | COc1ccc(-c2c(C#N)c(N)n(-c3ccc(S(=O)(=O)NC(=N)N)cc3)c(=O)c2C#N)cc1 [Compound 3b, 4-(6-Amino-3,5-dicyano-4-(4-methoxyphenyl)-2-oxopyridin-1(2H)-yl)-N-carbamimidoylbenzenesulfonamide] | – | – | – | – | no activity | 12 ± 0.36 mm | – | – | – | – | – | 19 ± 0.65 mm | – | – | – | 14 ± 0.16 mm | 21 ± 0.11 mm | 256 to 258 °C
6 | COc1ccc(C=Cc2cc(C)n(-c3ccc(S(=O)(=O)NC(=N)N)cc3)c(=O)c2C#N)cc1 [Compound 9b, N-Carbamimidoyl-4-(3-cyano-4-(4-methoxystyryl)-6-methyl-2-oxopyridin-1(2H)-yl) benzene sulfonamide] | – | – | – | – | 15 ± 0.15 mm | 17 ± 0.56 mm | – | – | – | – | – | 21 ± 0.55 mm | 23 ± 0.12 mm | 16 ± 0.20 mm | 23 ± 0.50 mm | 20 ± 0.16 mm | 22 ± 0.81 mm | –
